Values belong to the compound of their own block, whether it stands above or below them.
Key:
[1] = Hydroxyl radical production from H2O2 by the enzymes or free copper, EPR of DMPO-OH adduct; format: biochemical; details: for hydroxyl radical production (double integration of DMPO-OH signal): 1.25 μM protein or 2.5 μM CuSO4, 45 mM DMPO, 30 mM H2O2, pH 7.4
Procedure: Hydroxyl radical formation by mutant and wild type CuZnSODs was determined by measuring the amount of adduct formed when the radical scavenging agent 5,5'-dimethyl-1-pyrroline N-oxide (DMPO) was added to the hydroxyl radical forming reaction. The amount of the DMPO-OH radical adduct formed was determined by measurement of the unique EPR spectra signals of the adduct.
30 mM hydrogen peroxide was injected to start the reaction. […] EPR spectra were recorded on a Bruker ER 200 D at room temperature, operated at 9.5 GHz with a modulation frequency of 100 KHz.
The samples were prepared and handled, and all measurements executed, in a strictly oxygen-free atmosphere, to prevent radical scavenging by molecular oxygen. Buffers were treated with Chelex 100 (Biorad) to eliminate the possibility of contamination by trace metals. […] An aqueous flat cell (Wilmad) was used to hold the samples.

[2] = system: CSM 14.1 cells overexpressing wild type CuZnSOD; assay: Neural cell culture model of FALS: apoptosis/viability after serum withdrawal; format: cell-based, rat
Procedure: (§1) The conditionally-immortalized rat nigral neural cell line CSM 14.1 (M. Durand, et al., Soc. Neurosci. Abs. 16:40 (1990); and L. T. Zhong, et al., Proc. Natl. Acad. Sci. U.S.A. 90:4533 (1993)) was transfected with vectors carrying wild type CuZnSOD or the mutant CuZnSODs A4V, G37R, G41D, or G85R.
(§2) Next the […] efficacy of DDC was tested. Temperature-sensitive nigral neural cells (SCM 14.1) were transfected with wild type and A4V, G37R, G85R, and G41D mutant CuZnSOD constructs by methods described previously (Rabizadeh (1995), supra). Following selection in puromycin (7 μg/ml), cells were plated onto 96-well plates.
(§3) This was calculated as follows:
(§4) viability=[Vm(x)-Vm(0)]/[Vc(0)-Vm(0)]
(§5) Standard errors were computed by the delta method for computing the asymptotic standard error for the estimate of a nonlinear function (D. Colquhoun, Lectures on Biostatistics (Clarendon Press, 1971) pp. 39-42).

[3] = system: CSM 14.1 cells expressing mutant CuZnSODs A4V, G37R, G41D, G85R; assay: as above; format: cell-based, rat; details: DDC 25-100 μM, all four mutants
Procedure: as §1, §2, §3, §4, §5

CSM 14.1 cells = assay: Toxicity of DDC in transfected neural cells, all groups; format: cell-based, rat; details: DDC 1 mM or greater
Procedure: as §1, §2

hydroxyl radical production (double integration of DMPO-OH signal) [1]: 15.6 µM
DMPO-OH signal relative to the wild type CuZnSOD signal ([1]; fully metallated enzyme, mean ± spread): 3.0±1.1 times
range of DMPO-OH signal relative to the wild type CuZnSOD signal ([1]; fully metallated enzyme, range over experiments): 2.1-5.7 times
Compound: CuZnSOD mutant A4V: FALS-associated mutant human CuZnSOD A4V, recombinant, expressed in yeast

hydroxyl radical production (double integration of DMPO-OH signal) [1]: 6.5 µM
Compound: CuZnSOD mutant G93A: FALS-associated mutant human CuZnSOD G93A, recombinant, expressed in yeast

Further lines, the compound ahead of its results:

Compound: O=S(=O)([O-])[O-].[Cu+2] [CuSO4]
hydroxyl radical production (double integration of DMPO-OH signal) [1]: 1.9 µM

Compound: CCN(CC)C(=S)S [DDC, Diethyldithiocarbamate]
effect on viability ([2]; DDC 100 μM, 60 hours, serum-free media): no significant effect
effect on cell viability ([2]; DDC 500 μM): decreased the viability
effect on apoptosis ([2]; DDC 25-100 μM, serum withdrawal): no effect
inhibition of apoptosis induced by mutant CuZnSODs [3]: 30-70%
toxicity in all groups (CSM 14.1 cells): toxic

Compound: wild type CuZnSOD: recombinant human wild type copper-zinc superoxide dismutase expressed in Saccharomyces cerevisiae
hydroxyl radical production (double integration of DMPO-OH signal) [1]: 3.2 µM
